Source: patent US8247211B2, “Glycopeptide antibiotics” (American Cyanamid Company, priority 2001, dated 2012)

How the values were obtained:
Assay in all cases: In vitro antibacterial evaluation: minimum inhibitory concentration (MIC), broth dilution method
Type in all cases: cell-based
Enterococcus sp. = tested on: Enterococcus sp.
Method in brief: (§1)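 Broth dilution per NCCLS M7-A2 in Muller-Hinton II […], inoculum 5×10^5 CFU/mL, antibiotic tested over 64-0.06 μg/mL. MIC is taken as the lowest concentration that inhibits growth. Panel includes recent clinical isolates resistant to methicillin, penicillin and/or vancomycin.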

Escherichia coli = tested on: Escherichia coli
Method in brief: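 MIC read as lowest drug level preventing visible growth. Organisms at 5×10^5 CFU/mL were exposed to a 64-0.06 μg/mL dilution series in Muller-Hinton II […] following NCCLS broth dilution standard M7-A2.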

Staphylococcus sp. = details: for MIC Coagulase Negative Staphylococcus (ID-3941): strain ID-3941
Method in brief: as §1

Streptococcus sp. = tested on: Streptococcus sp.
Method in brief: as §1

[1] = broth dilution, 5×10^5 CFU/mL, 18 hours at 35° C.
[2] = strain ATCC 29213, broth dilution, 18 hours at 35° C.
[3] = strain GC 1131, broth dilution, 18 hours at 35° C.
[4] = strain GC 4541, broth dilution, 18 hours at 35° C.
[5] = strain GC 4542, broth dilution, 18 hours at 35° C.
[6] = strain GC 4543, broth dilution, 18 hours at 35° C.
[7] = strain GC 4544, broth dilution, 18 hours at 35° C.
[8] = strain GC 4545, broth dilution, 18 hours at 35° C.
[9] = strain GC 4546, broth dilution, 18 hours at 35° C.
[10] = strain GC 4547, broth dilution, 18 hours at 35° C.
[11] = strain GC 4548, broth dilution, 18 hours at 35° C.
[12] = strain GC 4549, broth dilution, 18 hours at 35° C.
[13] = strain GC 4551, broth dilution, 18 hours at 35° C.

COc1cc(OC)cc(C2OC3C(OC4C(CO)OC(Oc5ccc(CC6NC(=O)C(C(C)c7ccccc7)NC(=O)CNC(=O)C(CO)NC(=O)C(C(O)C7CNC(=N)N7C7OC(CO)C(O)C(O)C7O)NC(=O)C(C(O)C7CNC(=N)N7)NC6=O)cc5)C(O)C4O)OC(CO)C(O)C3O2)c1 (stereo not drawn) [Example 150a, Cyclo[glycyl-β-methylphenylalanyl-O-[4-O-[2,3-O-(3,5-dimethoxybenzylidene)hexopyranosyl]-hexopyranosyl]tyrosyl-3-(2-iminoimidazolidin-4-yl)seryl-3-(3-hexopyranosyl-2-iminoimidazolidin-4-yl)serylseryl]]
32 µg/mL: MIC Coagulase Negative Staphylococcus (GC 4551) (Staphylococcus sp.; [1]) | MIC Staphylococcus aureus (ATCC 29213) (Staphylococcus sp.; [1]) | MIC Staphylococcus aureus (GC 1131) (Staphylococcus sp.; [1]) | MIC Staphylococcus aureus (GC 3051) (Staphylococcus sp.; [1]) | MIC Staphylococcus aureus (GC 3053) (Staphylococcus sp.; [1]) | MIC Staphylococcus aureus (GC 4542) (Staphylococcus sp.; [1]) | MIC Staphylococcus aureus (GC 4544) (Staphylococcus sp.; [1]) | MIC Staphylococcus aureus (ATCC 29213) (Staphylococcus sp.; [2]) | MIC Staphylococcus aureus (GC 1131) (Staphylococcus sp.; [3]) | MIC Staphylococcus aureus (GC 3051) (Staphylococcus sp.; strain GC 3051, broth dilution, 18 hours at 35° C.) | MIC Staphylococcus aureus (GC 3053) (Staphylococcus sp.; strain GC 3053, broth dilution, 18 hours at 35° C.) | MIC Staphylococcus aureus (GC 4542) (Staphylococcus sp.; [5]) | MIC Staphylococcus aureus (GC 4544) (Staphylococcus sp.; [7]) | MIC Coagulase Negative Staphylococcus (GC 4551) (Staphylococcus sp.; [13]) | MIC Streptococcus agalactiae (GC 4564) (Streptococcus sp.; strain GC 4564)
64 µg/mL: MIC Enterococcus avium (GC 4558) (Enterococcus sp.; strain GC 4558)
16 µg/mL: MIC Enterococcus faecium (GC 4557) (Enterococcus sp.; strain GC 4557) | MIC Escherichi coli (GC 4560) (Escherichia coli; strain GC 4560) | MIC Coagulase Negative Staphylococcus (GC 4547) (Staphylococcus sp.; [1]) | MIC Staphylococcus aureus (GC 4541) (Staphylococcus sp.; [1]) | MIC Staphylococcus aureus (GC 4545) (Staphylococcus sp.; [1]) | MIC Staphylococcus aureus-SMITH (GC 4543) (Staphylococcus sp.; [1]) | MIC Staphylococcus haemolyticus (GC 4546) (Staphylococcus sp.; [1]) | MIC Staphylococcus aureus (GC 4541) (Staphylococcus sp.; [4]) | MIC Staphylococcus aureus-SMITH (GC 4543) (Staphylococcus sp.; [6]) | MIC Staphylococcus aureus (GC 4545) (Staphylococcus sp.; [8]) | MIC Staphylococcus haemolyticus (GC 4546) (Staphylococcus sp.; [9]) | MIC Coagulase Negative Staphylococcus (GC 4547) (Staphylococcus sp.; [10]) | MIC Streptococcus pyogenes (GC 4563) (Streptococcus sp.; strain GC 4563) | MIC Streptococcus pneumoniae (GC 4565) (Streptococcus sp.; strain GC 4565)
>64 µg/mL: MIC Enterococcus faecalis (ATCC 29212) (Enterococcus sp.; strain ATCC 29212) | MIC Enterococcus faecalis (GC 2242) (Enterococcus sp.; strain GC 2242) | MIC Enterococcus faecium (GC 2243) (Enterococcus sp.; strain GC 2243) | MIC Enterococcus faecalis (GC 2691) (Enterococcus sp.; strain GC 2691) | MIC Enterococcus faecalis (GC 3059) (Enterococcus sp.; strain GC 3059) | MIC Enterococcus faecalis (GC 4552) (Enterococcus sp.; strain GC 4552) | MIC Enterococcus faecalis (GC 4553) (Enterococcus sp.; strain GC 4553) | MIC Enterococcus faecalis (GC 4554) (Enterococcus sp.; strain GC 4554) | MIC Enterococcus faecium (GC 4556) (Enterococcus sp.; strain GC 4556) | MIC Enterococcus faecalis (GC 6189) (Enterococcus sp.; strain GC 6189) | MIC Escherichia coli (ATCC 25922) (Escherichia coli; strain ATCC 25922) | MIC Escherichia coli (GC 4559) (Escherichia coli; strain GC 4559)
8 µg/mL: MIC Coagulase Negative Staphylococcus (GC 4548) (Staphylococcus sp.; [1]) | MIC Coagulase Negative Staphylococcus (GC 4549) (Staphylococcus sp.; [1]) | MIC Coagulase Negative Staphylococcus (GC 6257) (Staphylococcus sp.; [1]) | MIC Coagulase Negative Staphylococcus (GC 4548) (Staphylococcus sp.; [11]) | MIC Coagulase Negative Staphylococcus (GC 4549) (Staphylococcus sp.; [12]) | MIC Coagulase Negative Staphylococcus (GC 6257) (Staphylococcus sp.; strain GC 6257, broth dilution, 18 hours at 35° C.) | MIC Streptococcus pneumoniae (ATCC 6301) (Streptococcus sp.; strain ATCC 6301) | MIC Streptococcus pneumoniae (GC 1894) (Streptococcus sp.; strain GC 1894)

CC(c1ccccc1)C1NC(=O)CNC(=O)C(CO)NC(=O)C(C(O)C2CNC(=N)N2C2OC(CO)C(O)C(O)C2O)NC(=O)C(C(O)C2CNC(=N)N2)NC(=O)C(Cc2ccc(OC3OC(CO)C(OC4OC5COC(CC(C)(C)C)OC5C(O)C4O)C(O)C3O)cc2)NC1=O (centres unmarked) [Example 110]
1 µg/mL: MIC Staphylococcus aureus (ATCC 29213) (Staphylococcus sp.; strain ATCC 29213) | MIC Staphylococcus aureus (ATCC 29213) (Staphylococcus sp.; [2]) | MIC Staphylococcus aureus (GC 1131) (Staphylococcus sp.; strain GC 1131) | MIC Staphylococcus aureus (GC 1131) (Staphylococcus sp.; [3]) | MIC Staphylococcus aureus (GC 4541) (Staphylococcus sp.; strain GC 4541) | MIC Staphylococcus aureus (GC 4541) (Staphylococcus sp.; [4]) | MIC Staphylococcus aureus (GC 4542) (Staphylococcus sp.; strain GC 4542) | MIC Staphylococcus aureus (GC 4542) (Staphylococcus sp.; [5]) | MIC Staphylococcus aureus-SMITH (GC 4543) (Staphylococcus sp.; strain GC 4543, 18 hours at 35° C.) | MIC Staphylococcus aureus-SMITH (GC 4543) (Staphylococcus sp.; [6]) | MIC Staphylococcus aureus (GC 4545) (Staphylococcus sp.; strain GC 4545) | MIC Staphylococcus aureus (GC 4545) (Staphylococcus sp.; [8]) | MIC Staphylococcus haemolyticus (GC 4546) (Staphylococcus sp.; strain GC 4546) | MIC Staphylococcus haemolyticus (GC 4546) (Staphylococcus sp.; [9]) | MIC Coagulase Negative Staphylococcus (GC 4547) (Staphylococcus sp.; strain GC 4547) | MIC Coagulase Negative Staphylococcus (GC 4547) (Staphylococcus sp.; [10]) | MIC Coagulase Negative Staphylococcus (GC 4548) (Staphylococcus sp.; strain GC 4548) | MIC Coagulase Negative Staphylococcus (GC 4548) (Staphylococcus sp.; [11]) | MIC Coagulase Negative Staphylococcus (GC 4549) (Staphylococcus sp.; strain GC 4549) | MIC Coagulase Negative Staphylococcus (GC 4549) (Staphylococcus sp.; [12]) | MIC Coagulase Negative Staphylococcus (GC 4551) (Staphylococcus sp.; strain GC 4551) | MIC Coagulase Negative Staphylococcus (GC 4551) (Staphylococcus sp.; [13]) | MIC Coagulase Negative Staphylococcus (ID-3941) (Staphylococcus sp.) | MIC Coagulase Negative Staphylococcus (ID-3941) (Staphylococcus sp.; broth dilution, 18 hours at 35° C.)
<0.5 µg/mL: MIC Streptococcus agalactiae (GC 4564) (Streptococcus sp.; [1]) | MIC Streptococcus pneumoniae (GC 4565) (Streptococcus sp.; [1]) | MIC Streptococcus pyogenes (ID-3187) (Streptococcus sp.; [1])
64 µg/mL: MIC Escherichia coli (ATCC 25922) (Escherichia coli; 5×10^5 CFU/mL, 18 hours at 35° C.)
2 µg/mL: MIC Enterococccus faecalis (GC 4554) (Enterococcus sp.; [1]) | MIC Enterococccus faecium (GC 4556) (Enterococcus sp.; [1]) | MIC Enterococccus faecium (GC 4557) (Enterococcus sp.; [1]) | MIC Enterococcus faecalis (GC 2242) (Enterococcus sp.; [1]) | MIC Staphylococcus aureus (GC 4544) (Staphylococcus sp.; strain GC 4544) | MIC Staphylococcus aureus (GC 4544) (Staphylococcus sp.; [7])
4 µg/mL: MIC Enterococccus avium (GC 4558) (Enterococcus sp.; [1]) | MIC Enterococccus faecalis (ATCC 29212) (Enterococcus sp.; [1]) | MIC Enterococccus faecalis (GC 4552) (Enterococcus sp.; [1]) | MIC Enterococccus faecalis (GC 4553) (Enterococcus sp.; [1]) | MIC Enterococccus faecium (GC 2243) (Enterococcus sp.; [1])
